Patent publication US20240216319A1, “TUMOR SUPPRESSANT AND PAIN RELIEF COMPOSITION FOR ORAL ADMINISTRATION” (priority 2022, published 2024)

Test system: bladder cancer
Settings: bladder cancer subject on chemotherapy

C=C(C)[C@H]1CC=C(C)CC1 [d-limonene]
reduction of tumor size at subsequent surgical procedure (earlier tumors 3 cm to 5 cm, then millimeter-sized): about 10 foled | tumor morphology at subsequent surgical procedure (tumors still present): ill-defined and amorphous
